Data from patent publication US20090286866A1, “Double compartment skincare products comprising avermectin/milbemycin compounds” (GALDERMA S.A., priority 2006, published 2009).

Columns and labels:
[1] = Comparative study of the chemical stability of ivermectin in various excipients; format: physicochemical
Excerpt: Comparative study of the chemical stability of ivermectin in various excipients.

[2] = Maximum solubility of ivermectin in various excipients; format: physicochemical; conditions: room temperature
Procedure: Study of the maximum solubility of ivermectin at T=1 hour at room temperature in various excipients.

Substance: ivermectin
- Amount after storage at 25° C. for 1 month ([1]; in Benzyl alcohol, 25° C.): 99.01%
- Amount after storage at 40° C. for 1 month ([1]; in Benzyl alcohol, 40° C.): 98.62%
- Amount at T0 ([1]; in Benzyl alcohol, T0): 98.72%
- Amount after storage at 25° C. for 1 month ([1]; in Diisopropyl adipate, 25° C.): 97.19%
- Amount after storage at 40° C. for 1 month ([1]; in Diisopropyl adipate, 40° C.): 96.70%
- Amount at T0 ([1]; in Diisopropyl adipate, T0): 102.5%
- Amount after storage at 25° C. for 1 month ([1]; in Macrogol 15-hydroxystearate, 25° C.): 95.32%
- Amount after storage at 40° C. for 1 month ([1]; in Macrogol 15-hydroxystearate, 40° C.): 71.88%
- Amount at T0 ([1]; in Macrogol 15-hydroxystearate, T0): 98.76%
- Amount after storage at 25° C. for 1 month ([1]; in PPG 15-stearyl ether, 25° C.): 98.61%
- Amount after storage at 40° C. for 1 month ([1]; in PPG 15-stearyl ether, 40° C.): 98.07%
- Amount at T0 ([1]; in PPG 15-stearyl ether, T0): 102.48%
- Amount after storage at 25° C. for 1 month ([1]; in Phenoxyethanol, 25° C.): 97.77%
- Amount after storage at 40° C. for 1 month ([1]; in Phenoxyethanol, 40° C.): 98.56%
- Amount at T0 ([1]; in Phenoxyethanol, T0): 99.42%
- Amount after storage at 25° C. for 1 month ([1]; in Poloxamer 124, 25° C.): 98.19%
- Amount after storage at 40° C. for 1 month ([1]; in Poloxamer 124, 40° C.): 92.34%
- Amount at T0 ([1]; in Poloxamer 124, T0): 98.09%
- Stability of ivermectin (in words) ([1]; in diisopropyl adipate, benzyl alcohol, PPG-15 stearyl ether and phenoxyethanol, at room temperature or at 40° C.): good stability
- Stability of ivermectin (in words) ([1]; in macrogol 15-hydroxystearate and in poloxamer, in particular at 40° C.): less stable
- Maximum solubility ([2]; in Alkyl benzoate, T=1 hour): 1.60 % (m/m)
- Maximum solubility ([2]; in Capric/caprylic triglycerides, T=1 hour): 1.70 % (m/m)
- Maximum solubility ([2]; in Diisopropyl adipate, T=1 hour): 10.40 % (m/m)
- Maximum solubility ([2]; in Dimethyl isosorbide, T=1 hour): 35.20 % (m/m)
- Maximum solubility ([2]; in Ethanol rectapur, T=1 hour): 14.47 % (m/m)
- Maximum solubility ([2]; in Macrogol 15 hydroxystearate, T=1 hour): 10.60 % (m/m)
- Maximum solubility ([2]; in N-Methyl-2-pyrrolidone, T=1 hour): 58.13 % (m/m)
- Maximum solubility ([2]; in Octyl dodecanol, T=1 hour): 2.50 % (m/m)
- Maximum solubility ([2]; in Oleyl alcohol, T=1 hour): 3.48 % (m/m)
- Maximum solubility ([2]; in PEG 400, T=1 hour): 9.14 % (m/m)
- Maximum solubility ([2]; in PPG 15 stearyl ether, T=1 hour): 3.30 % (m/m)
- Maximum solubility ([2]; in Phenoxyethanol, T=1 hour): 15.70 % (m/m)
- Maximum solubility ([2]; in Poloxamer 124, T=1 hour): 7.50 % (m/m)
- Maximum solubility ([2]; in Polysorbate 80, T=1 hour): 10.31 % (m/m)
- Maximum solubility ([2]; in Propylene glycol (PG), T=1 hour): 21.83 % (m/m)
- Maximum solubility ([2]; in Triacetin, T=1 hour): 7.22 % (m/m)
